pKi: −log10 of the molar value. Read-outs that look alike come from different tables or passages of the source.
Assays:
[1] = molecular target: human vasopressin V1a receptor (Homo sapiens, UniProt P37288); test: Vasopressin V1a receptor binding assay; settings: selectivity for human V1b over human V1a, quotient of binding constants
[2] = molecular target: T1, human vasopressin V1b receptor (Homo sapiens, UniProt P47901); settings: read-out: Ki(h-V1b)*, CHO-K1 cell membranes, displacement of 3H-AVP
T1 sequence (P47901 1-424): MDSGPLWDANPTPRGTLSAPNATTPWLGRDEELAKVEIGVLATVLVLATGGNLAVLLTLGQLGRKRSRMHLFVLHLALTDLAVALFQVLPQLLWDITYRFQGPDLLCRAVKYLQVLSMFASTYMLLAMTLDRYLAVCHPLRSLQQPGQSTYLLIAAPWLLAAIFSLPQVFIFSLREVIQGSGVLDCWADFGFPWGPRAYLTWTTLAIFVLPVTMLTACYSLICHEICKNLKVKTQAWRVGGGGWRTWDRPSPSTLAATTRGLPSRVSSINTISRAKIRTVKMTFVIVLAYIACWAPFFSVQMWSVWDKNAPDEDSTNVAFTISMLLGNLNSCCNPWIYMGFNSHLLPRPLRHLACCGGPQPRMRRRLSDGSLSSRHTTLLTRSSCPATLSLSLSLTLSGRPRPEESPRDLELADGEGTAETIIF

[3] = molecular target: T1, human vasopressin V1b receptor; test: biochemical; settings: Ki(h-V1b)* [nM], CHO-K1 cell membranes, displacement of 3H-AVP

human vasopressin V1a receptor, sequence (P37288 whole entry): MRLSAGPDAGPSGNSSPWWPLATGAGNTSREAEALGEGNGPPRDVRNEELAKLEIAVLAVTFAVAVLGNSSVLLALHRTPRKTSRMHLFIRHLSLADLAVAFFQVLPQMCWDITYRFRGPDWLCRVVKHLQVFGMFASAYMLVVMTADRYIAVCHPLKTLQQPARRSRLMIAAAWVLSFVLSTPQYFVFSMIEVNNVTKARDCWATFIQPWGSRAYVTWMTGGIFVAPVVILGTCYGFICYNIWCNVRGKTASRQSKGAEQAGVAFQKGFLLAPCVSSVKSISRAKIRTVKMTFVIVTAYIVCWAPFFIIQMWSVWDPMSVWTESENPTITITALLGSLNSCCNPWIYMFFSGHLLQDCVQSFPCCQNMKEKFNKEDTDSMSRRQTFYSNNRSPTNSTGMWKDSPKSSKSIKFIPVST

Row | Ki(h-V1a)/Ki(h-V1b) [1] | pKi [2] | Ki [3] [nM] | Structure (SMILES)
1 | +++ (>75) | 8.00 to 9.00 |  | CCOc1ncccc1[C@]1(NC(=O)N2CC3(CN(CCN4CCOCC4)C3)C2)C(=O)N(S(=O)(=O)c2ccc(F)cc2OC)c2ccc(C#N)cc21 [Example 3, N-[(3S)-5-Cyano-3-(2-ethoxy-3-pyridyl)-1-(4-fluoro-2-methoxy-phenyl)sulfonyl-2-oxo-indolin-3-yl]-2-(2-morpholinoethyl)-2,6-diazaspiro[3.3]heptane-6-carboxamide]
2 | ++ (25-75) |  | 1 to 10 | CCOc1ncccc1C1(CC(=O)N2CC3(CN(CCN4CCOCC4)C3)C2)C(=O)N(S(=O)(=O)c2ccc(OC)cc2)c2ccc(C#N)cc21 (single isomer, unassigned) [Example 20A, 3-(2-Ethoxy-3-pyridyl)-1-(4-methoxyphenyl)sulfonyl-3-[2-[2-(2-morpholinoethyl)-2,6-diazaspiro[3.3]heptan-6-yl]-2-oxo-ethyl]-2-oxo-indoline-5-carbonitrile]
3 | +++ (>75) |  | 1 to 10 | CCOc1ncccc1[C@]1(NC(=O)N2CC3(CN(CCN4CCOCC4)C3)C2)C(=O)N(S(=O)(=O)c2ccc(OC)cc2)c2ccc(C#N)cc21 [Example 1, N-[(3S)-5-Cyano-3-(2-ethoxy-3-pyridyl)-1-(4-methoxyphenyl)sulfonyl-2-oxo-indolin-3-yl]-2-(2-morpholinoethyl)-2,6-diazaspiro[3.3]heptane-6-carboxamide]
4 | ++ (25-75) |  | 10 to 100 | CCOc1ccccc1[C@]1(NC(=O)N2CC3(C2)CN(C2CCN(C)CC2)C3)C(=O)N(S(=O)(=O)c2ccc(OC)cc2OC)c2ccc(C#N)cc21 [Example 39B, N-[(3S)-5-Cyano-1-(2,4-dimethoxyphenyl)sulfonyl-3-(2-ethoxyphenyl)-2-oxo-indolin-3-yl]-2-(1-methyl-4-piperidyl)-2,6-diazaspiro[3.3]heptane-6-carboxamide]
5 | +++ (>75) |  | 1 to 10 | CCOc1ncccc1[C@]1(NC(=O)N2CC3(CN(CCN4CCOCC4)C3)C2)C(=O)N(S(=O)(=O)c2ccccc2OC)c2ccc(C#N)cc21.O=C(O)C(F)(F)F [Example 11, N-[(3S)-5-Cyano-3-(2-ethoxy-3-pyridyl)-1-(2-methoxyphenyl)sulfonyl-2-oxo-indolin-3-yl]-2-(2-morpholinoethyl)-2,6-diazaspiro[3.3]heptane-6-carboxamide; 2,2,2-trifluoroacetic acid]
6 | ++ (25-75) |  | 1 to 10 | CCOc1ncccc1[C@]1(NC(=O)N2CC3(CN(CCN4CCOCC4)C3)C2)C(=O)N(S(=O)(=O)c2ccc(C)cc2)c2ccc(C#N)cc21.O=C(O)C(F)(F)F [Example 10, N-[(3S)-5-Cyano-3-(2-ethoxy-3-pyridyl)-2-oxo-1-(p-tolylsulfonyl)indolin-3-yl]-2-(2-morpholinoethyl)-2,6-diazaspiro[3.3]heptane-6-carboxamide; 2,2,2-trifluoroacetic acid]
7 | +++ (>75) |  | < 1 | CCOc1ncccc1[C@]1(NC(=O)N2CC3(CN(CCN4CCOCC4)C3)C2)C(=O)N(S(=O)(=O)c2ccc(OC)cc2)c2ccc(C#N)cc21.O=C(O)C(F)(F)F [Example 1B, N-[(3S)-5-cyano-3-(2-ethoxy-3-pyridyl)-1-(4-methoxyphenyl)sulfonyl-2-oxo-indolin-3-yl]-2-(2-morpholinoethyl)-2,6-diazaspiro[3.3]heptane-6-carboxamide; 2,2,2-trifluoroacetic acid]
8 | ++ (25-75) |  | 10 to 100 | CCOc1ncccc1C1(NC(=O)N2CC3(CNC3)C2)C(=O)N(S(=O)(=O)c2ccc(OC)cc2OC)c2ccc(C#N)cc21.O=C(O)C(F)(F)F (stereo not drawn) [Example 58, N-(5-Cyano-1-(2,4-dimethoxyphenylsulfonyl)-3-(2-ethoxypyridin-3-yl)-2-oxoindolin-3-yl)-2,6-diazaspiro[3.3]heptane-2-carboxamide 2,2,2-trifluoroacetate]
9 | ++ (25-75) |  | 1 to 10 | CCOc1ncccc1[C@]1(NC(=O)N2CC3(CN(CCN4CCOCC4)C3)C2)C(=O)N(S(=O)(=O)c2ccc(OC)cc2OC)c2ccc(C#N)cc21 [Example 7, N-[(3S)-5-Cyano-1-(2,4-dimethoxyphenyl)sulfonyl-3-(2-ethoxy-3-pyridyl)-2-oxo-indolin-3-yl]-2-(2-morpholinoethyl)-2,6-diazaspiro[3.3]heptane-6-carboxamide]
10 | +++ (>75) |  | 10 to 100 | CCOc1ncccc1[C@]1(NC(=O)N2CC3(CC(OCCN4CCOCC4)C3)C2)C(=O)N(S(=O)(=O)c2ccc(OC)cc2)c2ccc(C#N)cc21 [Example 21A, N-[(3S)-5-Cyano-3-(2-ethoxy-3-pyridyl)-1-(4-methoxyphenyl)sulfonyl-2-oxo-indolin-3-yl]-2-(2-morpholinoethoxy)-6-azaspiro[3.3]heptane-6-carboxamide]
11 | + (10-<25) |  | 1 to 10 | COc1ccc(S(=O)(=O)N2C(=O)[C@@](NC(=O)N3CC4(CN(CCN5CCOCC5)C4)C3)(c3cccnc3OC)c3cc(C#N)ccc32)cc1.O=C(O)C(F)(F)F [Example 12, N-[(3S)-5-Cyano-1-(4-methoxyphenyl)sulfonyl-3-(2-methoxy-3-pyridyl)-2-oxo-indolin-3-yl]-2-(2-morpholinoethyl)-2,6-diazaspiro[3.3]heptane-6-carboxamide; 2,2,2-trifluoroacetic acid]
12 | ++ (25-75) |  | 10 to 100 | CCOc1ncccc1[C@]1(NC(=O)N2CC3(CN(CCN4CCOCC4)C3)C2)C(=O)N(S(=O)(=O)c2ccc(F)cc2)c2ccc(C#N)cc21 [Example 8, N-[(3S)-5-Cyano-3-(2-ethoxy-3-pyridyl)-1-(4-fluorophenyl)sulfonyl-2-oxo-indolin-3-yl]-2-(2-morpholinoethyl)-2,6-diazaspiro[3.3]heptane-6-carboxamide]
